Experimental data from patent US20250223268A1, “4-Methylsulfonylbenzamide Compound, Preparation Method, Herbicidal Composition And Use” (Jiangsu Flag Chemical Industry Co., Ltd., priority 2022, published 2025).

Assays:
Experiment in all cases: Greenhouse herbicidal activity assay, post-emergence
Assay type in all cases: in vivo
Settings in all cases: Post-emergence test, rate 150 g a.i./hm^2; grade by fresh weight inhibition rate
Digitaria sanguinalis = system: Digitaria sanguinalis
Procedure, shortened: (§1)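 Weeds were sown in nutrient soil in 7 cm pots and grown in a growth chamber to the 3-6 leaf stage, then foliar-sprayed, air-dried and returned to the chamber. Fresh weight inhibition was scored 14-21 days later in bands from A (≥80% to 100%) to E (<20%).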

Leptochloa chinensis = system: Leptochloa chinensis
Procedure, shortened: as §1

Cyperus iria = system: Cyperus iria
Procedure, shortened: as §1

Eclipta prostrata = system: Eclipta prostrata
Procedure, shortened: as §1

Echinochloa crusgalli = system: Echinochloa crusgalli
Procedure, shortened: as §1

Row | SMILES | Control efficacy grade, Digitaria sanguinalis (Digitaria sanguinalis) | Control efficacy grade, Leptochloa chinensis (Leptochloa chinensis) | Control efficacy grade, Cyperus iria (Cyperus iria) | Control efficacy grade, Eclipta prostrata (Eclipta prostrata) | Control efficacy grade, Echinochloa crusgalli (Echinochloa crusgalli)
1 | Cn1ncnc1NC(=O)c1ccc(S(C)(=O)=O)c([S+]([O-])C2CCC2)c1Cl (racemic) [Compound 2-38] | A (Fresh weight inhibition rate≥80% to 100%) | A (Fresh weight inhibition rate≥80% to 100%) | A (Fresh weight inhibition rate≥80% to 100%) | A (Fresh weight inhibition rate≥80% to 100%) | A (Fresh weight inhibition rate≥80% to 100%)
2 | Cn1ncnc1NC(=O)c1ccc(S(C)(=O)=O)c([S+]([O-])C2CCCC2)c1Cl (racemic) [Compound 2-43] | A (Fresh weight inhibition rate≥80% to 100%) | A (Fresh weight inhibition rate≥80% to 100%) | A (Fresh weight inhibition rate≥80% to 100%) | A (Fresh weight inhibition rate≥80% to 100%) | A (Fresh weight inhibition rate≥80% to 100%)
3 | Cn1ncnc1NC(=O)c1ccc(S(C)(=O)=O)c([S+]([O-])C2CCCCC2)c1Cl (racemic) [Compound 2-48] | A (Fresh weight inhibition rate≥80% to 100%) | A (Fresh weight inhibition rate≥80% to 100%) | A (Fresh weight inhibition rate≥80% to 100%) | A (Fresh weight inhibition rate≥80% to 100%) | A (Fresh weight inhibition rate≥80% to 100%)
4 | C=CC[S+]([O-])c1c(S(C)(=O)=O)ccc(C(=O)Nc2ncnn2C)c1Cl (racemic) [Compound 2-68] | A (Fresh weight inhibition rate≥80% to 100%) | A (Fresh weight inhibition rate≥80% to 100%) | A (Fresh weight inhibition rate≥80% to 100%) | A (Fresh weight inhibition rate≥80% to 100%) | A (Fresh weight inhibition rate≥80% to 100%)
5 | CCC[S+]([O-])c1c(S(C)(=O)=O)ccc(C(=O)Nc2nnc(C)o2)c1Cl (racemic) [Compound 3-2] | A (Fresh weight inhibition rate≥80% to 100%) | A (Fresh weight inhibition rate≥80% to 100%) | A (Fresh weight inhibition rate≥80% to 100%) | A (Fresh weight inhibition rate≥80% to 100%) | A (Fresh weight inhibition rate≥80% to 100%)
6 | CCCC[S+]([O-])c1c(S(C)(=O)=O)ccc(C(=O)Nc2nnc(C)o2)c1Cl (racemic) [Compound 3-12] | A (Fresh weight inhibition rate≥80% to 100%) | A (Fresh weight inhibition rate≥80% to 100%) | A (Fresh weight inhibition rate≥80% to 100%) | A (Fresh weight inhibition rate≥80% to 100%) | A (Fresh weight inhibition rate≥80% to 100%)
7 | CCC(C)Sc1c(S(C)(=O)=O)ccc(C(=O)Nc2nnc(C)o2)c1Cl (racemic) [Compound 3-16] | A (Fresh weight inhibition rate≥80% to 100%) | A (Fresh weight inhibition rate≥80% to 100%) | A (Fresh weight inhibition rate≥80% to 100%) | A (Fresh weight inhibition rate≥80% to 100%) | A (Fresh weight inhibition rate≥80% to 100%)
8 | Cc1nnc(NC(=O)c2ccc(S(C)(=O)=O)c([S+]([O-])CC(C)C)c2Cl)o1 (racemic) [Compound 3-28] | A (Fresh weight inhibition rate≥80% to 100%) | A (Fresh weight inhibition rate≥80% to 100%) | A (Fresh weight inhibition rate≥80% to 100%) | A (Fresh weight inhibition rate≥80% to 100%) | A (Fresh weight inhibition rate≥80% to 100%)
9 | Cc1nnc(NC(=O)c2ccc(S(C)(=O)=O)c([S+]([O-])CC3CC3)c2Cl)o1 (racemic) [Compound 3-38] | A (Fresh weight inhibition rate≥80% to 100%) | A (Fresh weight inhibition rate≥80% to 100%) | A (Fresh weight inhibition rate≥80% to 100%) | A (Fresh weight inhibition rate≥80% to 100%) | A (Fresh weight inhibition rate≥80% to 100%)
10 | Cc1nnc(NC(=O)c2ccc(S(C)(=O)=O)c([S+]([O-])CCC(C)C)c2Cl)o1 (racemic) [Compound 3-53] | A (Fresh weight inhibition rate≥80% to 100%) | A (Fresh weight inhibition rate≥80% to 100%) | A (Fresh weight inhibition rate≥80% to 100%) | A (Fresh weight inhibition rate≥80% to 100%) | B (Fresh weight inhibition rate≥260% to <80%)
11 | Cc1nnc(NC(=O)c2ccc(S(C)(=O)=O)c([S+]([O-])C3CC3)c2Cl)o1 (racemic) [Compound 3-78] | A (Fresh weight inhibition rate≥80% to 100%) | A (Fresh weight inhibition rate≥80% to 100%) | A (Fresh weight inhibition rate≥80% to 100%) | A (Fresh weight inhibition rate≥80% to 100%) | A (Fresh weight inhibition rate≥80% to 100%)
12 | Cc1nnc(NC(=O)c2ccc(S(C)(=O)=O)c([S+]([O-])C3CCC3)c2Cl)o1 (racemic) [Compound 3-83] | A (Fresh weight inhibition rate≥80% to 100%) | A (Fresh weight inhibition rate≥80% to 100%) | A (Fresh weight inhibition rate≥80% to 100%) | A (Fresh weight inhibition rate≥80% to 100%) | A (Fresh weight inhibition rate≥80% to 100%)
13 | Cc1nnc(NC(=O)c2ccc(S(C)(=O)=O)c([S+]([O-])C3CCCC3)c2Cl)o1 (racemic) [Compound 3-88] | A (Fresh weight inhibition rate≥80% to 100%) | A (Fresh weight inhibition rate≥80% to 100%) | A (Fresh weight inhibition rate≥80% to 100%) | A (Fresh weight inhibition rate≥80% to 100%) | A (Fresh weight inhibition rate≥80% to 100%)
14 | Cc1nnc(NC(=O)c2ccc(S(C)(=O)=O)c([S+]([O-])C3CCCCC3)c2Cl)o1 (racemic) [Compound 3-93] | A (Fresh weight inhibition rate≥80% to 100%) | A (Fresh weight inhibition rate≥80% to 100%) | A (Fresh weight inhibition rate≥80% to 100%) | A (Fresh weight inhibition rate≥80% to 100%) | A (Fresh weight inhibition rate≥80% to 100%)
15 | Cc1nnc(NC(=O)c2ccc(S(C)(=O)=O)c([S+]([O-])CC(F)(F)F)c2Cl)o1 (racemic) [Compound 3-98] | A (Fresh weight inhibition rate≥80% to 100%) | A (Fresh weight inhibition rate≥80% to 100%) | A (Fresh weight inhibition rate≥80% to 100%) | A (Fresh weight inhibition rate≥80% to 100%) | A (Fresh weight inhibition rate≥80% to 100%)
16 | Cc1nnc(NC(=O)c2ccc(S(C)(=O)=O)c([S+]([O-])CC(F)F)c2Cl)o1 (racemic) [Compound 3-103] | A (Fresh weight inhibition rate≥80% to 100%) | A (Fresh weight inhibition rate≥80% to 100%) | A (Fresh weight inhibition rate≥80% to 100%) | A (Fresh weight inhibition rate≥80% to 100%) | A (Fresh weight inhibition rate≥80% to 100%)
17 | C=CC[S+]([O-])c1c(S(C)(=O)=O)ccc(C(=O)Nc2nnc(C)o2)c1Cl (racemic) [Compound 3-113] | A (Fresh weight inhibition rate≥80% to 100%) | A (Fresh weight inhibition rate≥80% to 100%) | A (Fresh weight inhibition rate≥80% to 100%) | A (Fresh weight inhibition rate≥80% to 100%) | A (Fresh weight inhibition rate≥80% to 100%)
18 | C=C(C)C[S+]([O-])c1c(S(C)(=O)=O)ccc(C(=O)Nc2nnc(C)o2)c1Cl (racemic) [Compound 3-143] | A (Fresh weight inhibition rate≥80% to 100%) | A (Fresh weight inhibition rate≥80% to 100%) | A (Fresh weight inhibition rate≥80% to 100%) | A (Fresh weight inhibition rate≥80% to 100%) | A (Fresh weight inhibition rate≥80% to 100%)
19 | Cc1nnc(NC(=O)c2ccc(S(C)(=O)=O)c([S+]([O-])CC#N)c2Cl)o1 (racemic) [Compound 3-193] | B (Fresh weight inhibition rate≥260% to <80%) | A (Fresh weight inhibition rate≥80% to 100%) | A (Fresh weight inhibition rate≥80% to 100%) | A (Fresh weight inhibition rate≥80% to 100%) | A (Fresh weight inhibition rate≥80% to 100%)
